Test results as given in article PMC11430712, “The Endocannabinoid Peptide RVD-Hemopressin Is a TRPV1 Channel Blocker” (Biomolecules, 2024).
Entries after “also recorded” stand apart in the source; their conditions may differ. Peptide text beside a SMILES is read from it.

Key:
TRPV1 channel = system: TRPV1 channel; set-up: method as in 4 sources, ref [12]; anandamide and 2-AG ref [13],[14],[15],[16] ||| ref [88],[89] = [88]; PMID 27281200; doi:10.1038/nature17964; 88. Gao Y. Cao E. Julius D. Cheng Y. TRPV1 structures in nanodiscs reveal mechanisms of ligand and lipid action Nature 2016 534 347 351 10.1038/nature17964 27281200 PMC4911334 || [89]; PMID 37117175; doi:10.1038/s41467-023-38162-9; 89. Neuberger A. Oda M. Nikolaev Y.A. Nadezhdin K.D. Gracheva E.O. Bagriantsev S.N. Sobolevsky A.I. Human TRPV1 structure and inhibition by the analgesic SB-366791 Nat. Commun. 2023 14 2451 10.1038/s4 ||| ref [90] = [90]; PMID 38698206; doi:10.1038/s41594-024-01299-2; 90. Arnold W.R. Mancino A. Moss F.R. Frost A. Julius D. Cheng Y. Structural basis of TRPV1 modulation by endogenous bioactive lipids Nat. Struct. Mol. Biol. 2024 1 9 10.1038/s41594-024-01299-2 3869820 ||| ref [67] = [67]; PMID 29117570; doi:10.1016/j.celrep.2017.10.063; 67. Nersesyan Y. Demirkhanyan L. Cabezas-Bratesco D. Oakes V. Kusuda R. Dawson T. Sun X. Cao C. Cohen A.M. Chelluboina B. Oxytocin Modulates Nociception as an Agonist of Pain-Sensing TRPV1 Cell Rep. 2; conditions: cited from earlier work; for TRPV1 activation: capsaicin ref [12], anandamide and 2-AG ref [13],[14],[15],[16]; for TRPV1 channel state: vanilloid pocket, ref [90]
Excerpt: The transient receptor potential (TRP) channels family involves several subfamilies, including the vanilloid (TRPVs) group. TRPV1, a member of the TRPV subfamily, is a non-selective cationic homotetramer channel. It is known to be activated by various stimuli, including temperature, capsaicin (the principal compound in chili peppers), and endocannabinoids such as anandamide (AEA) and 2-arachidonoylglycerol (2-AG). The TRPV1 channel protein is found in the central (CNS) and peripheral nervous system (PNS). In the CNS, TRPV1 is expressed in the prefrontal cort ... || Molecular dynamics (MD) simulations allow studying protein dynamics at an atomic level under physiological conditions, enhancing our understanding of various proteins, including ion channels like TRPV1 [82]. These simulations provide insight into their function, conformational changes, and interactions with different ligands.

[1] = individuals with osteoarthritis; ref [99]; cited from earlier work
Excerpt: Capsaicin creams and patches have been used in the treatment of muscle pain, neuropathic pain, arthritis, and migraines. […] CNTX-4975 has been developed as a treatment option for pain in individuals with osteoarthritis.

human TRPV1 channel [2] = molecular target: T1, human TRPV1 channel (Homo sapiens, UniProt Q8NER1); assay: Whole-cell voltage-clamp recording of TRPV1 currents, HEK293 cells with human TRPV1-GFP; type: cell-based
T1 construct: host or cells: HEK293
Description: (§1) Dr. Alejandro Maureira, Universidad Católica del Maule, Chile, generously provided HEK293 cells. The cells were cultured in T75 flasks (Corning Inc., Corning, NY, USA) in a humidified atmosphere at 37 °C with 5% CO2 in Dulbecco’s Modified Eagle Medium (DMEM) with high glucose (Cytiva, Marlborough, MA, USA), supplemented with 10% fetal bovine serum (Cytiva, Marlborough, MA, USA) and a mixture of 100 IU/mL penicillin and 100 µg/mL streptomycin (Corning Inc., Corning, NY, USA) in a CO2CELL incubator (MMM Group, Munich, Germany). This procedure was used to maintain the cells for all of the experiments.
(§2) HEK293 cells were transfected with the human TRPV1 channel coupled to GFP in its C-terminus (TRPV1-GFP, catalog #: RG217653, Origene, Rockville, MD, USA). […] Transfections were conducted using Lipofectamine 3000 (Invitrogen, Waltham, MA, USA), according to the manufacturer’s instructions. Experimental protocols were performed 24 h post-transfection.
Untransfected and transfected HEK293 cells with the human TRPV1-GFP were recorded using a whole-cell voltage clamp. Cells were cultured in 15 mm round coverslips pretreated with 0.1 mg/mL poly-L-lysine (Gibco, Billings, MT, USA) and transfected with TRPV1-GFP plasmid. TRPV1-GFP-positive cells were identified using a 405 nm LED light in a Nikon Eclipse Ts2 inverted microscope. Borosilicate pipettes (nº 1B150F-4, World Precision Instruments, Sarasota, FL, USA) of 2.8’5 MΩ were used. Pipettes were pulled with a P-97 Micropipette Puller (Sutter Instruments, Novato, CA, USA). The extracellular solution contained (in mM) 140 NaCl, 5 KCl, 2 CaCl2, 1 MgCl2, 10 HEPES, and 6 glucose at pH 7.4. The internal solution contained (in mM) 140 CsCl, 4 MgCl2, 10 EGTA, and 10 HEPES-CsOH at pH 7.3. All the experiments were recorded using a HEKA EPC9 amplifier. The holding potential was −80 mV. A 500 ms voltage ramp from −80 to 80 mV was applied to record TRPV1 currents. The sample frequency was 50 kHz, and the signals were filtered at 2.9 kHz using PatchMaster software. Data were analyzed using Clampfit v.7 software (Molecular Devices, San Jose, CA, USA). The extracellular solution and ligands were administered using a VC-8 perfusion system (~2 mL/s, Warner Instruments, Holliston, MA, USA). We used capsaicin (Cayman Chemicals, nº 92350), SB366791 (nº 11019, Cayman Chemicals, Ann Arbor, MI, USA), and RVD-Hp (Synbio Technologies, Monmouth Junction, NJ, USA). We used dimethyl sulfoxide (DMSO, Sigma-Aldrich, St. Louis, MO, USA) and untransfected cells as controls. Electrophysiological recordings were performed at room temperature.
(§3) The data were analyzed and plotted using GraphPad software v10.0.2. We used the Shapiro–Wilk test to determine the data distribution. […] Statistically significant values were considered when p values were * p < 0.05, ** p < 0.01, *** p < 0.001, and **** p < 0.0001.

[3] = ref [106]; cited from earlier work
Excerpt: Chronic pain is often accompanied by the development of depression. […] However, a significant challenge in utilizing RVD-Hp as a therapeutic agent lies in the inherent sensitivity of peptides to enzymatic degradation. […] Developing carriers that can stabilize RVD-Hp and facilitate its delivery to the brain is essent ...

rats = conditions: cited from earlier work
Excerpt: Despite this, evidence of a direct interaction between Hp and the TRPV1 channel is lacking. We speculate that Hp binds and activates TRPV1, possibly engaging the same binding site as RVD-Hp. […] Thus, RVD-Hp emerges and holds potential as a novel modulator for non-opioid analgesia and anxiety treatment. […] Moreover, since RVD-Hp effectively blocks the open TRPV1 channel, it presents a promising approach to inhibit the population of TRPV1 channels that are pathologically over-activated, thereby ... || (+ 1 further places)

human TRPV1 channel [4] = molecular target: T1, human TRPV1 channel; assay: Calcium imaging (Fura Red-AM), HEK293 cells transfected with hTRPV1-GFP; type: cell-based; conditions: pH 7.4, room temperature
Description: as §1, §2, §3

[5] = molecular target: human TRPV1 channel coupled to GFP in its C-terminus (human) (UniProt Q8NER1)
Sequence of human TRPV1 channel coupled to GFP in its C-terminus (human) (Q8NER1 whole entry): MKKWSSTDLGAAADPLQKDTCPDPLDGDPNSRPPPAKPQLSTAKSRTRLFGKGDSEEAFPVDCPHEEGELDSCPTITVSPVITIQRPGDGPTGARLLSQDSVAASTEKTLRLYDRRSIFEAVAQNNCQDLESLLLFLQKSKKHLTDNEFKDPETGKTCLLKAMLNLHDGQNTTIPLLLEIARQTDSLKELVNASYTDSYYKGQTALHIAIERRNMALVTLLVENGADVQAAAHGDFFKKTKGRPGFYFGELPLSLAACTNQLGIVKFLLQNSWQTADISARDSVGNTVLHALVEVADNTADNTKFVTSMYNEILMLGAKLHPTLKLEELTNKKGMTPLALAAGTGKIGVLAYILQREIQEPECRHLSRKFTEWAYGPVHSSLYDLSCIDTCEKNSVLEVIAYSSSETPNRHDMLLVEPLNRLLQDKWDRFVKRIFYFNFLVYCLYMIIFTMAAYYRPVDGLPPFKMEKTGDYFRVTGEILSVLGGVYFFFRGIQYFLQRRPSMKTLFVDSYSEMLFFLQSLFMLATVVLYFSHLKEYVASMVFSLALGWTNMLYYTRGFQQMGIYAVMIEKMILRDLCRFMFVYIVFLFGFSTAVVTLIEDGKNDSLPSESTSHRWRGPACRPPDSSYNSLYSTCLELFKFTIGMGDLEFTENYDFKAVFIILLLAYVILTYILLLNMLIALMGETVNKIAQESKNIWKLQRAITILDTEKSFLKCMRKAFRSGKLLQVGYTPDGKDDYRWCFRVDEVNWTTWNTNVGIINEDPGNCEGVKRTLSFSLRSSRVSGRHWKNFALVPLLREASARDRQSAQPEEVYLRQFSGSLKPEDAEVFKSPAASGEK

T1 sequence (Q8NER1 whole entry): as above

CCCCC/C=C\C/C=C\C/C=C\C/C=C\CCCC(=O)OC(CO)CO [2-arachidonoylglycerol]
TRPV1 activation (TRPV1 channel): activated

COc1cc(CNC(=O)CCCC/C=C/C(C)C)ccc1O [CNTX-4975]
Adverse effects [1]: nausea, hypotension, oral hypoesthesia, and erythema

CC(C)C[C@H](NC(=O)[C@H](CC(C)C)NC(=O)[C@H](CCCCN)NC(=O)[C@H](Cc1ccccc1)NC(=O)[C@H](CC(N)=O)NC(=O)[C@@H](NC(=O)[C@@H]1CCCN1C(=O)[C@H](CC(=O)O)NC(=O)[C@@H](NC(=O)[C@@H](N)CCCNC(=N)N)C(C)C)C(C)C)C(=O)N[C@@H](CO)C(=O)N[C@@H](Cc1cnc[nH]1)C(=O)O [RVD-Hp, RVD-hemopressin] (H-RVDPVNFKLLSH-OH)
IC50 (human TRPV1 channel [2]): 18.6 µM | Blood–brain barrier crossing [3]: cannot cross the blood–brain barrier | Stability in plasma [3]: low stability in plasma

COc1cccc(NC(=O)/C=C/c2ccc(Cl)cc2)c1 [SB366791]
Current of compound alone compared with Cap-induced TRPV1 current (human TRPV1 channel [2]; 10 µM alone vs 1 µM Cap, ***** p < 0.0001): significantly different from the Cap-induced TRPV1 current | Current of compound alone compared with control (human TRPV1 channel [2]; 10 µM alone vs control (n: 7)): not different from the control | TRPV1 currents induced by the compound alone (human TRPV1 channel [2]; 10 µM alone, +80 mV, RVD-Hp n: 4, SB366791 n: 3, room temperature): Neither 10 µM RVD-Hp nor 10 µM SB366791 alone induced TRPV1 currents | Block of Cap-induced TRPV1 currents (human TRPV1 channel [2]; 10 µM with 1 µM Cap, +80 mV, RVD-Hp n: 4 (* p < 0.0214), SB366791 n: 4 (**** p < 0.0001), comparison to capsaicin, room temperature): blocked | TRPV1 binding mode of antagonists (TRPV1 channel; requiring four molecules to induce channel closure, ref [88],[89]): bind to the vanilloid pocket and compete with capsaicin | Effect on Hp-induced anxious behavior (rats; SB366791 on Hp-induced behavior, ref [8]): mitigating impact; also recorded: mitigated | Block of Cap-induced increase in intracellular Ca^2+ concentration (human TRPV1 channel [4]; 1 µM Cap + 10 µM RVD-Hp (n: 60, * p < 0.032) or 10 µM SB366791 (n: 20, * p < 0.0113), comparison to Cap): partially blocked | Effect on intracellular Ca^2+ of the compound alone (human TRPV1 channel [4]; 10 µM alone, no Cap, RVD-Hp n: 59, SB366791 n: 51): Neither 10 µM RVD-Hp nor 10 µM SB366791 augmented the intracellular Ca^2+

CCCCC/C=C\C/C=C\C/C=C\C/C=C\CCCC(=O)NCCO [anandamide]
TRPV1 activation (TRPV1 channel): activated

Phosphoinositide
TRPV1 channel state (TRPV1 channel): favor the close state of the TRPV1 channel

hemopressin
Anxiety-like behavior (Hp in rats) (rats; rats, ref [8],[9]): induces anxiety-like behavior in rats | Anxiety-/depressive-like behavior (rats; rodent models, ref [8]): induce anxiogenic and depressive-like behaviors

lysophosphatidic acid
TRPV1 channel state (TRPV1 channel): induces channel opening

oxytocin
TRPV1 activation and nociception (oxytocin) (TRPV1 channel; ref [67]): activate the TRPV1 channel and modulate nociception

phosphatidylinositol 4,5-biphosphate
TRPV1 channel state (TRPV1 channel): favor the close state of the TRPV1 channel

RVDPVNFKLLSH [RVD-hemopressin]
whole-cell voltage clamp of HEK293 cells expressing TRPV1-GFP: inhibition of the TRPV1 current induced by 1 µM capsaicin (at +80 mV), RVD-Hp at 1, 10, 20 and 50 µM; IC50 [5]: 18.6 µM
